“And” between values parts separate entries of the source, which are not always exact repeats. Equal entries are not always repeated. Structures can show the parent of a compound that is named as a salt. Where two headings read alike, the source gives them in different places.
Key:
[1] = test system: rat peritoneal mast cells; test: Inhibition of histamine release from rat peritoneal mast cells, Procedure B; format: cell-based; conditions: Mast cell, 1 h, read-out: In Vitro Inhibition of Histamine Release IC50 (μM) Procedure B
Method: B. Procedure for Determining Inhibition of Histamine Release from Rat Peritoneal Mast Cells
Harvest of Peritoneal Mast Cells: After the rats are sacrificed with ether, 20 ml of Minimum Essential Medium (MEM) containing 20 units/ml heparin is injected into the peritoneum. The abdomen is massaged for one minute and the lavage fluid collected. The peritoneal cells are centrifuged at 1800 rpm for 8 minutes in cold. After two washes with Tris A buffer, the cells are resuspended in Tris ACM buffer at 2-4×10^6 cells/ml.
Reaction mixture: The reaction is carried out in 12×75 mm plastic tubes at a total volume of 1.25 ml. The reaction mixture includes 0.5 ml (10-1000 μg) sheep anti-rat IgE or ovalbumin, 0.2 ml of the test compound in water at concentrations ranging from 10-1000 μM, 0.5 ml phosphatidylserine solution (20-60 μg to each tube), and 0.5 ml of cell suspension.
The concentration which causes a 50% inhibition (IC50) of histamine release is computed as in Part A.

[2] = test system: human leukocytes (basophils); test: Inhibition of IgE-mediated histamine release from human leukocytes (basophils), Procedure A; format: cell-based; conditions: Leukocyte, 1 h, read-out: In Vitro Inhibition of Histamine Release IC50 (μM) Procedure A
Method: A. Procedure for Determining Inhibition of Histamine Release from Human Leukocytes (Basophils)
Separation of Leukocytes: A modification of the method of L. Lichtenstein and A. Osler, J. Exp. Med. 120, 507 (1964) is used. Heparinized human blood (80-100 ml) is mixed with 20 ml of saline (0.2%) containing 0.6 gm of dextrose and 1.2 gm of dextran in propylene centrifuge tubes. The mixture is kept at ambient temperature for 60-90 minutes to allow the separation of erythrocytes from the platelet-leukocyte-rich supernate. The supernate is removed and centrifuged for 8 minutes at 110 ×g in cold. The leukocyte pellet is washed twice with Tris buffer and finally suspended in 150-180 ml Tris-ACM buffer at 1-2 ×10^6 cells/ml.
Reaction Mixture: The reaction is carried out in 12×75 mm plastic tubes at a total volume of 1.23 ml. The reaction medium includes 0.05 ml rabbit anti-human IgE (the antigen), 0.2 ml of the test compound in water at concentrations ranging from 10-100 μM, and 1.0 ml of the leukocyte suspension. The reaction mixture is incubated in a 37° C. shaking water bath for 60 minutes. Upon completion of the reaction, the tubes are centrifuged and the supernatants collected. The protein is removed from the supernatants by precipitation with 0.2 ml of 8% perchloric acid.
Histamine Assay: Histamine release is measured by the automated fluorometric method of W. Siraganian and W. Hook in Chapter 102 of the Manual of Clinical Immunology, 2nd Edition, edited by R. Rose and H. Friedman, published by the American Society for Microbiology, Washington, D.C., 1980. Percent inhibition is calculated as follows: [formula]
The concentration which causes a 50 percent inhibition (IC50) of histamine release is interpolated from a plot of percent inhibition versus logarithm of drug concentration.

histamine (H1) receptor = target: T1, histamine (H1) receptor (Cavia porcellus, UniProt P31389); test: Antagonism of histamine-induced contraction of isolated guinea pig ileum; format: tissue-based; conditions: histamine final concentration 0.2 μg/ml, 50% reduction of contractile response, read-out: Inhibition IC50 (μM) of histamine-induced contraction
T1 construct: contraction of isolated guinea pig ileum; from tissue; host or cells: isolated guinea pig ileum
T1 sequence (P31389 whole entry): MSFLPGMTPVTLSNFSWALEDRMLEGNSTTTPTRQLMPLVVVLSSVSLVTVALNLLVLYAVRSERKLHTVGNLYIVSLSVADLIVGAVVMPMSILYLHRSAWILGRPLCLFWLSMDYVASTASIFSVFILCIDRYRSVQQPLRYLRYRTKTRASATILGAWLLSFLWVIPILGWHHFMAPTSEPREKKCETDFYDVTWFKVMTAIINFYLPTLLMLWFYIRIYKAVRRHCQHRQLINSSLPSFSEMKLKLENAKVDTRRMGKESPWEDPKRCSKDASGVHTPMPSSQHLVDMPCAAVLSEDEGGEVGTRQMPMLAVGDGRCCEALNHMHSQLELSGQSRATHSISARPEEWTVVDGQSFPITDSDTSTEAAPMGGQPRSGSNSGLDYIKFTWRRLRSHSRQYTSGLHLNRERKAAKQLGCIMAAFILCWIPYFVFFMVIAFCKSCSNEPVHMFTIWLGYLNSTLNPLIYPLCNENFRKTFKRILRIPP
Text: Certain compounds of formula I inhibit in vitro the histamine-induced contraction of isolated guinea pig ileum and are useful in warm-blooded animals for antagonizing the action of histamine at the histamine (H1) receptor. Accordingly, these compounds can be employed in a conventional manner as antihistamine agents for the treatment of allergic disorders, for example allergic rhinitis, vasomotor rhinitis, allergic conjunctivitis, hay fever, urticaria, and food allergies.
The antagonism of the effects of histamine on the contraction of isolated guinea pig ileum by the compounds of formula I can be determined by the procedure of G. Possanza, A. Bauen, and P. Stewart, Int. Arch. Allergy Appl. Immunol., 49, 289 (1975). The degree of inhibition is determined as the difference between the contraction caused by histamine (final concentration 0.2 μg/ml) alone and that seen in the presence of both histamine and the test compound. The inhibitory activity of the test compound is expressed as that concentration of the compound which causes a 50% reduction of the contractile response (IC50).

guinea pig basophils = test: Inhibition of histamine release from guinea pig basophils, Procedure C; format: cell-based; conditions: Cavia porcellus, 1 h, read-out: In Vitro Inhibition of Histamine Release IC50 (μM) Procedure C
Method: C. Procedure for Determining Inhibition of Histamine Release from Guinea Pig Basophils
1. In Vivo Sensitization: Male Hartley guinea pigs (200-300 gm) are immunized on day 0 with two 0.05 ml intradermal injections of 200 μg ovalbumin. Sensitized basophils are available between days 13-25 post-sensitization. This mode of sensitization favors IgE response.
2. Separation of Leukocytes: The method of Lett-Brown et al., Int. Arch. Allergy, Appl. Immun. 64, 241 (1981) is used. Animals are anesthetized with ether and are bled via cardiac puncture, with plastic syringes containing sufficient EDTA to provide a final concentration of 10 mM.
One part of 3% gelatin in saline at 37° C. is mixed with 2 parts of blood in a 16×150 mm tube. The cells are allowed to sediment at a 30° angle for 45 minutes in a 37° C. water bath. The leukocyte-rich plasma is collected and centrifuged at 150×g for 30 minutes at room temperature. The pelleted cells are washed in Hepes-buffered saline (HG) containing 4 mM EDTA and resuspended in Hepes-buffered saline containing […] and Ca^++ (HGCM) at 4-5×10^6 cells/ml.
3. Reaction Mixture: The reaction is carried out in 12×75 mm plastic tubes and a total volume of 1.2 ml which includes 0.5 ml of antigen, 0.2 ml of drug solution at concentrations ranging from 10-1000 μM and 0.5 ml of prewashed cell suspension. The reaction mixture is incubated in a 37° C. shaking water bath for 60 minutes. Upon completion of the reaction, the tubes are centrifuged and the supernatants collected. The protein is removed from the supernatants by precipitation with 0.2 ml of 8% perchloric acid.
4. Histamine Assay: Histamine release is measured by the automated fluorometric method of Siraganian, supra. The concentration which causes a 50 percent inhibition of histamine release is computed as in Part A.

[3] = from rat peritoneal mast cells, sheep anti-rat IgE or ovalbumin, 60 min at 37° C.
[4] = from human basophils, rabbit anti-human IgE as antigen, 60 min at 37° C., > = no response detected at highest dose indicated
[5] = from guinea pig basophils (ovalbumin-sensitized), 60 min at 37° C., > = no response detected at highest dose indicated

Compound | IC50 [1, 3] | IC50 [2, 4] | IC50 (histamine (H1) receptor) | IC50 (guinea pig basophils; [5]) | IC50 ([1]; Rattus norvegicus) | IC50 ([2]; Homo sapiens) | IC50 (guinea pig basophils)
O=C(NC1CCCCC1)SCCCN1CCN(Cc2ccc(Cl)cc2)CC1 [Example 6, N-Cyclohexyl-S-{3-[4-(4-chlorobenzyl)piperazin-1-yl]propyl}thiocarbamate dihydrochloride] | 3 µM | 5 µM | 0.06 µM | 20 µM |  |  | 
COc1ccc(NC(=O)SCCCN2CCN(CCc3ccc(Cl)cc3)CC2)cc1 [Example 28, N-(4-Methoxyphenyl)-S-{3-[4-(4-chlorophenethyl)piperazin-1-yl]propyl}thiocarbamate dihydrochloride] | 7 µM | 5 µM | 0.12 µM and 0.09 µM | 40 µM |  |  | 
CCCCc1ccc(NC(=O)SCCCN2CCN(CCCc3ccc(Cl)cc3)CC2)cc1 [Example 33, N-(4-n-Butylphenyl)-S-{3-[4-[3-(4-chlorophenyl)propyl]piperazin-1-yl]propyl}thiocarbamate dihydrochloride] | 2 µM | 5 µM |  | 14 µM |  |  | 
SCCN1CCN(Cc2ccc(Cl)cc2)CC1 [Example 36, 2-[4-(4-Chlorobenzyl)piperazin-1-yl]ethanethiol dihydrochloride] |  |  |  |  | 5 µM | 3 µM | > 100 µM
